Results taken from ChEMBL document CHEMBL5247640 (J Med Chem, 2023).

Legend:
[1] = target: T1, Thyroid hormone receptor beta (Homo sapiens, UniProt P10828); assay: Agonist activity at human THRbeta transfected in Huh7 cells co-transfected with luciferase reporter plasmid assessed as […] luciferase activity incubated for 16 hrs by Steady-Glo luciferase assay; type: cell-based, Huh-7
T1 sequence (P10828 whole entry): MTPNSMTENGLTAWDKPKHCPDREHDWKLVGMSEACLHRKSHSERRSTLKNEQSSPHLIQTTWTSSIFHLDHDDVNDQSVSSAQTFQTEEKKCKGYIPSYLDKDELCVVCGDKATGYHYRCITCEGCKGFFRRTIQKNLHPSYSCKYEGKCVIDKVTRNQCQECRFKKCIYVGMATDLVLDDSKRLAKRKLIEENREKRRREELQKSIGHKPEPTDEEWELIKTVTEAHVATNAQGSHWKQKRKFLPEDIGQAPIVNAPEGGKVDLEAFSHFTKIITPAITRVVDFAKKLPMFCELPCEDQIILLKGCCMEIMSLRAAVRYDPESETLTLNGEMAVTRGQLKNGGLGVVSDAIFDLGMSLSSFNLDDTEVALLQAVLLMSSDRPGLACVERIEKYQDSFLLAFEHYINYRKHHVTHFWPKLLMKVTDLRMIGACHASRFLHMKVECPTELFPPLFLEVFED

[2] = Fold of selectivity, ratio of compound EC50/T3 EC50 for THRalpha to ratio of compound EC50/T3 EC50 for THRbeta
[3] = target: T2, Thyroid hormone receptor alpha (Homo sapiens, UniProt P10827); assay: Agonist activity at human THRalpha transfected in Huh7 cells co-transfected with luciferase reporter plasmid assessed as […] luciferase activity incubated for 16 hrs by Steady-Glo luciferase assay; type: cell-based, Huh-7
T2 sequence (P10827 whole entry): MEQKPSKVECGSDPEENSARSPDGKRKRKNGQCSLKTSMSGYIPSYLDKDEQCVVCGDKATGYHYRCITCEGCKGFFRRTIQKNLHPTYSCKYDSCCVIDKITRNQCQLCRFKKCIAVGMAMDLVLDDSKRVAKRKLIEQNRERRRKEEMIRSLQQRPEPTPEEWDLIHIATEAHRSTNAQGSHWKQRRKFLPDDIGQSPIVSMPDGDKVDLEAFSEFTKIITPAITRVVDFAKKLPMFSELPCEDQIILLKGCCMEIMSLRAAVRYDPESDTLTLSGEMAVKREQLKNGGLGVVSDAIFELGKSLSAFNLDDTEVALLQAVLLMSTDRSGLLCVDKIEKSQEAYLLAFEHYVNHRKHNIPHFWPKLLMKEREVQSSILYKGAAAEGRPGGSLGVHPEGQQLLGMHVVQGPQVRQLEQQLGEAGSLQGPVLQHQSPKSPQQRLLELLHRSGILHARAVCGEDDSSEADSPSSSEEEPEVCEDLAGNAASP

[4] = Cmax in ICR mouse at 30 mg/kg, po measured after 24 hrs by LC-MS/MS analysis; type: ADME, organism-based; parameters: time 24 hrs, dose 30 mg/kg, route po; conditions: in vivo
[5] = Metabolic stability in mouse liver microsomes assessed as half life; type: ADME, Microsome
[6] = Metabolic stability in human liver microsomes assessed as half life; type: ADME, Microsome
[7] = Toxicity in ICR mouse assessed as decrease in serum total cholesterol level at 30 mg/kg, po administered as single dose measured after 24 hrs by automated biochemical analyzer; type: organism-based; parameters: scale not given: the % may be the effect or the level left; conditions: in vivo
[8] = Metabolic stability in human liver microsomes assessed as intrinsic clearance; type: ADME, Microsome
[9] = Half life in ICR mouse at 30 mg/kg, po measured after 24 hrs by LC-MS/MS analysis; type: ADME, organism-based; conditions: in vivo
[10] = Metabolic stability in rat liver microsomes assessed as intrinsic clearance; type: ADME, Microsome
[11] = AUClast in ICR mouse at 30 mg/kg, po measured after 24 hrs by LC-MS/MS analysis; type: ADME, organism-based; parameters: dose 30 mg/kg, time 24 hrs, route po; conditions: in vivo
[12] = Metabolic stability in mouse liver microsomes assessed as intrinsic clearance; type: ADME, Microsome
[13] = Metabolic stability in rat liver microsomes assessed as half life; type: ADME, Microsome
[14] = Tmax in ICR mouse at 30 mg/kg, po measured after 24 hrs by LC-MS/MS analysis; type: ADME, organism-based; conditions: in vivo

Compound	EC50 [1] [nM]	EC50 [3] [nM]	Ratio [2]	also measured
N#Cc1nn(-c2cc(Cl)c(-n3ccc4c3ccc(=O)n4C3CC3)c(Cl)c2)c(=O)[nH]c1=O	30	130	7.9	–
CCn1c(=O)ccc2c1ccn2-c1c(Cl)cc(-n2nc(C#N)c(=O)[nH]c2=O)cc1Cl	20	50	3.8	–
N#Cc1nn(-c2cc(Cl)c(-n3ccc4c3ccc(=O)n4C3CCCC3)c(Cl)c2)c(=O)[nH]c1=O	40	340	8.1	–
CC(C)n1c(=O)ccc2c1ccn2-c1c(Cl)cc(-c2n[nH]c(=O)[nH]c2=O)cc1Cl	40	40	1	–
Cc1cc2c(ccn2-c2c(Cl)cc(-n3nc(C#N)c(=O)[nH]c3=O)cc2Cl)cc1O	> 3700	> 1200	–	–
N#Cc1nn(-c2cc(Cl)c(-n3ccc4c3ccc(=O)n4C3CCC3)c(Cl)c2)c(=O)[nH]c1=O	20	120	7.5	–

Second part, led by results:

EC50 [1] [nM]	EC50 [3] [nM]	Compound	Ratio [2]	also measured
> 100000	> 100000	N#Cc1nn(-c2cc(Cl)c(-n3ccc4ccc(O)cc43)c(Cl)c2)c(=O)[nH]c1=O	–	–
> 1200	> 3700	N#Cc1nn(-c2cc(Cl)c(-n3ccc4[nH]c(=O)ccc43)c(Cl)c2)c(=O)[nH]c1=O	–	–
200	740	Cn1c(=O)ccc2c1ccn2-c1c(Cl)cc(-n2nc(C#N)c(=O)[nH]c2=O)cc1Cl	6	Cmax [4]: 2170 ng/mL; half-life [5]: 11.6 h; half-life [6]: 3.07 h; Activity [7]: 33.5%; CLH [8]: 11.4 mL/min/g; half-life [9]: 7 h; CLH [10]: 10.2 mL/min/g; AUC(0-t) at 24 h [11]: 26000 ng·h/mL; CLH [12]: 3 mL/min/g; half-life [13]: 3.43 h; Tmax [14]: 3 h
